The text below walks through data of patent US20240366634A1, “METHODS FOR THE TREATMENT OF CB1-, TRPA1- AND TRPV1-DEPENDENT CONDITIONS” (BUZZELET DEVELOPMENT AND TECHNOLOGIES LTD., priority 2021, published 2024).

What all share (format): cell-based
For one assay, the target named is T1, hTRPA1 (Homo sapiens, UniProt O75762).
T1 construct: expressed in transfected cells; host or cells: TREx 293 cells, pcDNA4/TO vector, doxycycline-induced
Description: Live-cell calcium imaging (Fura-2) of TRPA1 activation in TREx 293 cells. How it is done: rTRPV1 or hTRPA1 were stably expressed in TREx 293 cells following the manufacturer's protocol (Invitrogen, MA, USA). Briefly, TREx host cell line (Invitrogen, MA, USA) was transfected with pcDNA4/TO containing the gene of interest using Mirus LT1 transfection reagent (Mirus Bio, WI, USA) with Opti-MEM I Reduced Serum Medium (Invitrogen, MA, USA). Successful recombination and maintenance were confirmed through zeocin (500 μg/ml; Invivogen, Toulouse, France) selection to establish a stably-transfected cell line. Cells were grown in DMEM (Sigma-Aldrich, MO, USA) supplemented with 10% FBS, 1% penicillin-streptomycin, 2 mM L-alanine L-glutamine, and 25 mM HEPES (pH 7.3) supplemented with 5 μg/ml blasticidin at 37° C. and 5% CO2. Cells were passaged twice per week. Three hours before analysis, cells were treated with doxycycline (0.2-1 μg/ml) to induce transgene expression.
Flip-in TREX293T cells were spotted at PDL (0.2 mg/ml)-coated imaging chambers (μ-slide, 8-well; Ibidi, Martinsried, Germany) and incubated for 1.5-2 h in a humidified incubator at 37° C. and 5% CO2. Cells were loaded with 3 μg/ml Fura-2 AM (Thermo Fisher Scientific) dissolved in Ringer solution. The imaging chamber was placed onto the inverted microscope (IX70; Olympus, Tokyo, Japan). Cells were illuminated with a 175W xenon arc lamp, and excitation wavelengths (340/380 nm) were selected by a Lambda DG-4 monochromatic wavelength changer (Sutter Instrument, Novato, CA, USA). Intracellular Ca2+ concentration was measured by digital video microfluorometry illuminated interline CCD camera (Exi Blue; QImaging, Surrey, BC, Canada) using MetaFluor fluorescence ratio imaging software (Molecular Devices). Dual images (340 and 380 nm excitation, 510 nm emission) were collected, and pseudocolor ratio-metric images were monitored every 4 s during the experiment. Data analysis was performed with MetaFluor fluorescence ratio imaging software. Data are presented as a normalized intensity of baseline fluorescence. All experiments were carried out at room temperature.
Data for THC (leftmost column) and for THC with a 1/10 concentration of a terpene are presented. Response amplitudes are normalized to the maximal activation obtained by administration of Allyl Isothiocyanate (AITC). Numbers in parentheses represent p values for the comparison of the TRPA1 activation for THC and for THC plus a 1/10 concentration terpene.

The target of a further assay is T2, GIRK channel (Homo sapiens, UniProt P48051+P48549).
T2 construct: expressed in transfected cells; host or cells: Xenopus laevis oocytes injected with cRNA
T2 sequence (P48549 1-501): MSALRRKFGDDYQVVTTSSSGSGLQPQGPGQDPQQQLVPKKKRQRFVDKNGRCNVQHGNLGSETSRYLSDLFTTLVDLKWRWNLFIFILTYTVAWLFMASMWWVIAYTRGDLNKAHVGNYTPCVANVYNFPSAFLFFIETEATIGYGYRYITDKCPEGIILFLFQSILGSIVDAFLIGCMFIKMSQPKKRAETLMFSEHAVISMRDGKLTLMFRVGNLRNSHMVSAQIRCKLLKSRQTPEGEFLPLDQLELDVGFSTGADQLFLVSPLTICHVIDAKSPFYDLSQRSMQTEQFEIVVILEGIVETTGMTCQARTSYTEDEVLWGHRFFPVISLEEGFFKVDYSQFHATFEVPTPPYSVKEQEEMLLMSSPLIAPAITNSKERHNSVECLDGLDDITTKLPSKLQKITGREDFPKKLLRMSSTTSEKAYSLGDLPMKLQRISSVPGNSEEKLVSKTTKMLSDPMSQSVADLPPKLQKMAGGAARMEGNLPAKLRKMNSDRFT
T2 sequence (P48051 1-423): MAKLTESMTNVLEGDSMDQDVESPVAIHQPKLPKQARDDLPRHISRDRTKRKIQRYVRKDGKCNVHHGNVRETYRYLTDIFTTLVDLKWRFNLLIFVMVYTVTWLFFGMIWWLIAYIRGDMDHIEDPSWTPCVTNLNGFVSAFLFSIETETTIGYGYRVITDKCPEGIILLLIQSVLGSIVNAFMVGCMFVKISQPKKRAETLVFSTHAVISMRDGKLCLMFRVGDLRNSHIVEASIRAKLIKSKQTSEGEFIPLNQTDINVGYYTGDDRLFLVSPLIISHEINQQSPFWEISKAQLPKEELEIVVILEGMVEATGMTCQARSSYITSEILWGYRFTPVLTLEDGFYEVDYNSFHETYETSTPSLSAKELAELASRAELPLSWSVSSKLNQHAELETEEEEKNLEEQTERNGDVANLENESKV
Description: Receptor-independent effect on GIRK current in oocytes expressing the GIRK channel but not the CB1 receptor. As for the experimental part: To do so, the effect of THC and a panel of various terpenes was measured on oocytes expressing the GIRK channel but not the CB1 receptor.

Assay [1] addresses T3, CB1 receptor (Homo sapiens, UniProt P21554).
T3 construct: expressed in transfected cells; host or cells: Xenopus laevis oocytes injected with cRNA
Briefly: CB1 receptor activation by THC in combination with terpenes, Xenopus oocyte GIRK current. The following applies: terpene:THC weight/weight ratio 1:10; ratio of THC concentrations evoking 50% of maximal response with and without terpene. How it is done:
Xenopus oocytes were used as a functional expression system, as described in Example 1.
Terpenes were administered together with tetrahydrocannabinol (THC) at a terpene to THC weight/weight ratio in the range between 0.05:1 and 1:1.
Augmented activation was given as fold change. Fold change in potency is given as the ratio between the THC concentration required to evoke 50% of the maximal response in the presence of terpene and the THC concentration that evoked the same response in the absence of terpene.

The target of assay [2] is T3, CB1 receptor. Description: CB1 receptor activation by terpenes, CB1-mediated GIRK currents in Xenopus oocytes (two-electrode voltage clamp). The following applies: 10 μM terpene alone; response amplitude normalized to response obtained with 10 μM THC; Xenopus oocytes expressing CB1, GIRK1/2, Gαi3. As for the experimental part: To test the possibility that the presence of various terpenes affects the activation of the CB1 receptor, the Inventors used Xenopus oocytes as a functional expression system. To this end, Xenopus oocytes were injected with cRNAs of proteins involved in the pathway leading to activation of K+ currents by CB1 receptor via βγ subunits of the G-proteins: The CB1 receptor, the two subunits of the GIRK channel (GIRK1 and GIRK2), and the Gαi3 subunit.
cDNA plasmids of the two subunits (GIRK1 and GIRK2) of the G protein-coupled inwardly-rectifying potassium (GIRK) receptor, the CB1 receptor, and the α subunit of the G-protein (Gαi3) were linearized with the appropriate restriction enzymes. The linearized plasmids were transcribed in vitro using a standard procedure.
X. laevis oocytes were isolated and incubated in NDE96 solution composed of ND96 (in mM: 96 NaCl, 2 KCl, 1 CaCl2, 1 MgCl2, 5 Hepes, with pH adjusted to 7.5 with NaOH) with the addition of 2.5 mM Na+ pyruvate, 100 units/ml penicillin, and 100 μg/ml streptomycin. A day after their isolation, the oocytes were injected with the relevant cRNAs. cRNAs of CB1 receptor (2 ng) and GIRK1 and GIRK2 (200 pg each) were injected. In addition, cRNA of Gαi3 (1000 pg) was injected to decrease the basal GIRK current (IK) and to improve the relative activation by the agonist (17).
Currents were measured 3-5 days after cRNA injection and were recorded using the standard two-electrode voltage clamp technique (Axoclamp 2B amplifier, Axon Instruments, Foster City, CA). Each oocyte was placed in the recording bath containing ND96 solution and was impaled with two electrodes pulled from 1.5-mm Clark capillaries (CEI, Pangboure, England). Both electrodes were filled with 3M KCl solution and the electrodes resistances were between 1-5 MΩ). The CB1-mediated GIRK currents were measured in a 24 mM K+ solution (in mM: 72 NaCl, 24 KCl, 1 CaCl2, 1 MgCl2, 5 Hepes, with pH adjusted to 7.5 with KOH). pCLAMP10 software (Axon Instruments) was used for data acquisition and analysis.
Next, the dependence of the THC-induced K+ current (ITHC) on THC concentration (dose-response) was measured. The oocyte was voltage-clamped to-80 mV in a low K+ (2 mM K+) solution, ND96. Basal GIRK current (IK) was developed upon replacement of the ND96 by the 24 mM K+ solution. This current represents the basal activation of GIRK channel by endogenous βγ subunits present in the oocytes. Then, five concentrations of THC were applied sequentially, giving rise to ITHC. This current was terminated upon washout of THC. Employing this basic experimental protocol, a full dose-response curve was constructed. To be able to compare between oocytes, ITHC at any particular THC concentration was normalized to ITHC obtained at a 10 μM, defined as the reference response.
Next, the effect of terpenes on CB1 activation was assessed.
Response amplitudes were normalized to the response obtained with 10 μM THC.
A general note: Two-electrode voltage clamp holds a large cell at a set potential and records current.

Where [3] appears, read: 30 μM THC with a 1/10 concentration of the terpene.
Where [4] appears, read: 8 μM THC with a 1/10 concentration of the terpene.

T1 sequence (O75762 whole entry): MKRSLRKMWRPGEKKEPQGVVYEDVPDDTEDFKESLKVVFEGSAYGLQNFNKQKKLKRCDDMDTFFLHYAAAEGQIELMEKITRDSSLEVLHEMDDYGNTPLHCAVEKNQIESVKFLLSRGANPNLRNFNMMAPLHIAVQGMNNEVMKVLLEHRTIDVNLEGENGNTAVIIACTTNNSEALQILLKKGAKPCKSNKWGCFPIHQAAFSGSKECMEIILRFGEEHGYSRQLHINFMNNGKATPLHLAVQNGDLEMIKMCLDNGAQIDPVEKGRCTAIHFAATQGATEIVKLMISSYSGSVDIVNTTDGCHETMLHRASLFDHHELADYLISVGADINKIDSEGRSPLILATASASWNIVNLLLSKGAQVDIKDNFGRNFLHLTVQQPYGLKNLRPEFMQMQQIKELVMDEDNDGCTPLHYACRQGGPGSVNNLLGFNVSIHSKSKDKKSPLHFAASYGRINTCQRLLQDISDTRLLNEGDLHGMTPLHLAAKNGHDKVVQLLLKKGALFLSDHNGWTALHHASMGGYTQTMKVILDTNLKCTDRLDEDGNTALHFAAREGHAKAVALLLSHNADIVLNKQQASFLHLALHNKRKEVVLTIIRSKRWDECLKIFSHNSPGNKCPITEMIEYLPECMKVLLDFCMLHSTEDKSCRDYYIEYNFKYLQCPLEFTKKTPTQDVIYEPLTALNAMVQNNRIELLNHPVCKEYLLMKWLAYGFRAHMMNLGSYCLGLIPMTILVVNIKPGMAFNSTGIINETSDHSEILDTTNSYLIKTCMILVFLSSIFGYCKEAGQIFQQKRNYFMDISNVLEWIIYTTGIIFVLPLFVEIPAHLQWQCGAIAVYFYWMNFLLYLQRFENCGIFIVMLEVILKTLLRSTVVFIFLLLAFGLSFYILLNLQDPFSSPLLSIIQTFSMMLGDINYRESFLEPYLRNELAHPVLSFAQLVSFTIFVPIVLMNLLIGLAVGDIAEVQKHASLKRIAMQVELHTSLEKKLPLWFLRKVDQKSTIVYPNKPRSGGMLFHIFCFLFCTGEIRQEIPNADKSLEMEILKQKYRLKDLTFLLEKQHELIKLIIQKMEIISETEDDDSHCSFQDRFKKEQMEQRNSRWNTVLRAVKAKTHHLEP
T3 sequence (P21554 whole entry): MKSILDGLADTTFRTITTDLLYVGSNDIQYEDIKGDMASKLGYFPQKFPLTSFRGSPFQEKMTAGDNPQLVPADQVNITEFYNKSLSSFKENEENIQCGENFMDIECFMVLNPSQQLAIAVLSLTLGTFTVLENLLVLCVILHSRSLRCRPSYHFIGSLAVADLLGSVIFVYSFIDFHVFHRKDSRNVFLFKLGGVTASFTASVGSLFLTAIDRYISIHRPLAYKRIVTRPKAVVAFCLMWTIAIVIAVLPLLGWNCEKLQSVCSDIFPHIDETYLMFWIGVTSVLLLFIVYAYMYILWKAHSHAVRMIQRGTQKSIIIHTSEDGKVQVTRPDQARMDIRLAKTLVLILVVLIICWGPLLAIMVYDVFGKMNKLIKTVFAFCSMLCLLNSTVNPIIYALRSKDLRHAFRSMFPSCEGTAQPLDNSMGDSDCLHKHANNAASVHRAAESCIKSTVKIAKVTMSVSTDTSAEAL

For the compound `CC(C)=CCCC(C)=CC=O` [Citral], the “TRPA1 response amplitude normalized to maximal activation by AITC” value (“TRPA1 response amplitude normalized” below) on hTRPA1 (setting [3]) is recorded as 0.96.
Take `CC1CCC(C(C)C)C(O)C1` (centres unmarked) [Menthol]: the “TRPA1 response amplitude normalized” value on hTRPA1 (setting [4]) was 0.44.
For `CCCCCc1cc(O)c2c(c1)OC(C)(C)[C@@H]1CCC(C)=C[C@@H]21` [THC, tetrahydrocannabinol, reference compound], the “Effect on the GIRK current” value on GIRK channel is “None of these compounds showed an effect on the GIRK current”. Also, the “TRPA1 response amplitude normalized” value was 0.35 on hTRPA1 (8 μM THC alone) and 0.8 at hTRPA1 (30 μM THC alone).
Take `CC1(C)C2CCC1(C)C(O)C2` (centres unmarked) [borneol]: the “Fold change of THC potency by terpene, at terpene:THC ratio of 1:10” value (“Fold change … at terpene:THC ratio of 1:10” for short) at CB1 receptor [1] was 4.469.
Turning to `CC12CCC(CC1)C(C)(C)O2` [eucalyptol], the results for the “TRPA1 response amplitude normalized” value at hTRPA1 (setting [4]) and at hTRPA1 (setting [3]) were 0.48 and 0.93, respectively. For the same compound, the “Response to 10 μM terpene” value on CB1 receptor [2] came out at 0.41 ± 0.04.
Turning to `CC(C)=CCC/C(C)=C/CO` [geraniol], at CB1 receptor [1], the “Fold change … at terpene:THC ratio of 1:10” value came to 1.576. Moreover, at CB1 receptor [2], the “Response to 10 μM terpene” value is 0.31 ± 0.08.
For `C=C(C)[C@H]1CC=C(C)CC1` [limonene] the same measures were 3.369 and 0.23 ± 0.02.
Turning to `C=CC(C)(O)CCC=C(C)C` (centres unmarked) [linalool], the results for the “TRPA1 response amplitude normalized” value on hTRPA1 (setting [4]) and on hTRPA1 (setting [3]) were 0.44 and 0.93, respectively. The “Fold change … at terpene:THC ratio of 1:10” value on CB1 receptor [1] is listed as 1.553.
In the case of `C=CC(=C)CCC=C(C)C` [myrcene], the “Response to 10 μM terpene” value on CB1 receptor [2] is on record as 0.26 ± 0.07.
Regarding `C=CC(C)=CCC=C(C)C` [ocimene], on CB1 receptor [1], the “Fold change … at terpene:THC ratio of 1:10” value was found to be 2.639. In addition, on CB1 receptor [2], the “Response to 10 μM terpene” value stood at 0.36 ± 0.05.
As for `C=C1CCC2(C(C)C)CC12` (centres unmarked) [sabinene], the “Fold change … at terpene:THC ratio of 1:10” value on CB1 receptor [1] is given as 1.685.
Turning to `CC1=CCC(=C(C)C)CC1` [terpinolene], at CB1 receptor [2], the “Response to 10 μM terpene” value is 0.45 ± 0.02.
In the case of `CC1=CCC2CC1C2(C)C` (stereo not drawn) [α-pinene], the “Response to 10 μM terpene” value at CB1 receptor [2] stood at 0.29 ± 0.03.
Still for that read-out and setting: in the case of `C=C1CCC2CC1C2(C)C` (stereo not drawn) [β-pinene] it was 0.29 ± 0.06.
